The values that follow come from article PMC9026148, “Pre-Clinical Study Evaluating Novel Protein Phosphatase 2A Activators as Therapeutics for Neuroblastoma” (Cancers, 2022).

For assay [1], the system named is SH-EP cells. Nature of the assay: Cell cycle analysis by flow cytometry (PI), SH-EP. The assay is classed as cell-based, human. Conditions: 24 h; for Mean % G1 (± SEM) / Mean % G2 (± SEM) / Mean % S (± SEM) / percentage of cells in the S phase / percentage of cells in G1: SH-EP, 15 μM; for percentage of cells in the S phase: untreated 30.9 ± 2.1; for percentage of cells in G1: untreated 42.6 ± 2.4. On the procedure: To evaluate cell cycle, cells (1 × 10^6) were plated and maintained in respective media with reduced FBS (4%) for cell synchronization. […] Cells were washed with phosphate-buffered saline (PBS) and fixed at 4 °C for 30 min with 100% ethanol. Following a second PBS wash, cells were stained with propidium iodide (PI, Invitrogen, Waltham, MA, USA), RNAse A (0.1 mg/mL, Qiagen, Germantown, MD, USA), and 0.1% TritonX (Active Motif, Carlsbad, CA, USA), and FACSCalibur^TM Flow Cytometer (BD Biosciences, Franklin Lakes, NJ, USA) was used for examination. FlowJo software (FlowJo, LLC, Ashland, OR, USA) was used for data analysis. Data reported as mean percentage cells in phase ± SEM.
For orientation: Flow cytometry measures light scatter and fluorescence of single cells or particles in a stream.

In a further assay the test system is SK-N-AS cells. Description: CellTiter 96 proliferation, SK-N-AS. The assay is classed as cell-based. Conditions: Homo sapiens, 24 h. As for the experimental part: CellTiter 96® Aqueous One Solution Cell Proliferation assay (Promega, Madison, WI, USA) was used to examine proliferation, and alamarBlue® assay (Thermo Fisher Scientific, Inc.) was used to evaluate viability. Cells, concentrations ranging from 5 × 10^3 to 1.5 × 10^4, depending on cell type due to wide variation in growth characteristics between established cell lines and PDX cells, were plated in 96-well plates and treated with increasing doses of 792 or 1154 for 24 h. CellTiter 96® or alamarBlue® dye (10 µL) was added for proliferation and viability assays, respectively. A microplate reader (Epoch Microplate Spectrophotometer, BioTek Instruments, Winooski, VT) measured absorbance at 490 nm for CellTiter 96® and at 570 nm for alamarBlue®, using 600 nm as a reference. […] Experiments were completed with at least three biologic replicates, and data reported as fold change ± SEM.
Supplemental Figure S3: Novel PP2A activating compounds decrease d neuroblastoma proliferation and viability. SK-N-AS and SK-N-BE(2) cells (1.5 x 104) were plated in 96-well plates and treated with increasing doses of nine PP2A activating compounds for 24 […]
novel PP2A activators tested in (A) SK-N-AS and (B) SK-N-BE(2) cells. Similarly, PP2A […]
(D) SK-N-BE(2) cells. Data reported as mean fold change ± SEM, and experiments were repeated with at least three biologic replicates. […]

For a further assay, the system named is CIP2A. Nature of the assay: Immunoblotting of CIP2A in neuroblastoma cells. The assay is classed as cell-based, human. Conditions: increasing concentrations, 24 h; all cell lines except WAC2 and COA129 treated with 792. On the procedure:
(§1) Following treatment, cells were lysed on ice using radioimmunoprecipitation (RIPA) buffer with phosphatase inhibitors (P5726, Sigma Aldrich), protease inhibitors (P8340, Sigma Aldrich), and phenylmethanesulfonylfluoride (PMSF, P7626, Sigma Aldrich) for 60 min. Cell lysates were centrifuged at 17,000 rpm for 30 min at 4 °C. Pierce™ BCA Protein Assay (Thermo Fisher Scientific, Inc.) determined protein concentration and proteins were separated by electrophoresis on sodium dodecyl sulfate polyacrylamide (SDS-PAGE) gels. Expected size of the targeted proteins was confirmed using molecular weight markers (Precision Plus Protein Kaleidoscope, Bio-Rad, Hercules, CA, USA). […] Immunoblots were developed with Luminata Classico or Crescendo Western horseradish peroxidase substrate (EMD Millipore, Burlington, MA, USA). Either anti-vinculin or anti-β-actin (as available from manufacturer) served as an internal loading control. We performed densitometry of Western blots using ImageJ software (Ver 1.49, http://imagej.nih.gov/ij (accessed on 9 February 2022).
(In general: Immunoblotting shows a protein as a band on a membrane.)

Assay [2] concerns SH-EP cells. Nature of the assay: Annexin V/PI apoptosis flow cytometry, SH-EP. The assay is classed as cell-based, human. Conditions: 10 µM, 24 h. On the procedure:
Apoptosis was evaluated using the FITC Annexin V Apoptosis Detection Kit (BD Biosciences) according to manufacturer’s protocol. SH-EP cells (5 × 10^5) were treated with either 792 or 1154 (10 µM) for 24 h. Cells were trypsinized, washed with PBS, centrifuged, and re-suspended in 100 μL of 1× binding buffer (0.1 M HEPES/NaOH, 1.4 M NaCl, 25 mM CaCl2, pH 7.4). Annexin V-FITC staining solutions were added, and cells were incubated for 15 min at room temperature (20–25 °C) in the dark. Cells were washed in 1 mL of 1× binding buffer, centrifuged, and re-suspended in 500 μL of 1× binding buffer. PI was added, and cells sat on ice for 1 h prior to flow cytometry. Unstained cells and cells stained with either PI or Annexin V alone were utilized for negative controls and compensation. The percent of Annexin V and/or PI positive cells was determined via flow cytometry using the Attune NxT Flow Cytometer (Invitrogen). Data are represented as percent cell population with Annexin V + PI− stained cells representing early apoptotic cells, Annexin V + PI + cells representing late apoptotic cells, cells not stained with Annexin V or PI representing live cells, and cells stained with PI only representing necrotic or dead cells. FlowJo software (FlowJo, LLC) was used for data analysis. Data reported as mean ± SEM.
Supplemental Figure S6: 792 and 1154 treatment and apoptosis. Cells were serum starved and treated with 792 or 1154 to evaluate the cell cycle as previously described (Figure 4).
(A) The percent of cells in the subG1 (<G1) is reported in tabular form. There was no sig-nificant increase in the subG1 population in any of the cell lines except for SH-EP cells […]
subG1 population, further investigation of apoptosis was performed. Cells were treated with 792 or 1154 (0, 10 µM) for 24 hours and were assessed by flow cytometry of Annexin V/PI dual staining, and FlowJo was used for analysis. […]
significant increase (B) in early apoptosis (Annexin V + PI - cells, quadrant Q3) (C) whereas […]
mechanism behind the effect of these drugs on viability. […]

The test system of the next assay is MYCN. Nature of the assay: Immunoblotting of MYCN in neuroblastoma cells. The assay is classed as cell-based, human. Conditions: 24 h. On the procedure: as §1
In another assay the target is T1, PP2A (Homo sapiens, UniProt P30153+P67775).
T1 construct: host or cells: SH-EP
T1 sequence (P67775 whole entry): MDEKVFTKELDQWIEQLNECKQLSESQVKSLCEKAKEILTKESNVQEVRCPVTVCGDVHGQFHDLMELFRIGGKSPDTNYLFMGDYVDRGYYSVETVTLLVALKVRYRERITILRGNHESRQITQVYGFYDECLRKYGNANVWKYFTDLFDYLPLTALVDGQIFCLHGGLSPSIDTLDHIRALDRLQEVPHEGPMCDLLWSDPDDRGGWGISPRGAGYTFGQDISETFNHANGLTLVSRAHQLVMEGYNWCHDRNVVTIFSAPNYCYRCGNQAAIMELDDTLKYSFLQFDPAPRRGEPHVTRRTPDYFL
T1 sequence (P30153 2-589 limits assumed): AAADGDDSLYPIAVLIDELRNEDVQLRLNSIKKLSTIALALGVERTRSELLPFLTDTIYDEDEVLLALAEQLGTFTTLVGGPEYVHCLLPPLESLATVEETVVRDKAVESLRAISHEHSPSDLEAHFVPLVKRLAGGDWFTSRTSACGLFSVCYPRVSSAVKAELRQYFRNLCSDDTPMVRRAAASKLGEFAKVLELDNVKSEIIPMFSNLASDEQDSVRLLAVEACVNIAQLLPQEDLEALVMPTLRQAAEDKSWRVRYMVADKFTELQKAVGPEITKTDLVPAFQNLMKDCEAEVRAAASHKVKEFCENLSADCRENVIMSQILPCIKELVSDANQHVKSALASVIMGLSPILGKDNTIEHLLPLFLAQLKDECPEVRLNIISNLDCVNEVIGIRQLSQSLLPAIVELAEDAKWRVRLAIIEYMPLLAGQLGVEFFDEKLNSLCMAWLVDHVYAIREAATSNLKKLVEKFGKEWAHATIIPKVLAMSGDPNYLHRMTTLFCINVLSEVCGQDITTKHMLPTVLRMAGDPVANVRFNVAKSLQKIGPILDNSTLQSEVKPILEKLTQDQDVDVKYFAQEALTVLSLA
Nature of the assay: PP2A immunoprecipitation phosphatase assay in SH-EP cells. The assay is classed as cell-based. Conditions: 24 h, 10 μM in text (15 μM in Figure 2 legend), control 100 ± 0%.

Where [3] appears, read: SK-N-AS cells, increasing doses.
Setting [4] is: SK-N-BE(2), SH-EP and WAC2 cells, 0, 10, 20 μM.

By IC50 is commonly meant the concentration that inhibits the measured activity by half. High values mean a need for much substance, low ones inhibition by little substance.

Take `O=S(=O)(NC1CCCC(N2c3ccccc3CCc3ccccc32)C1O)c1ccc(OC(F)(F)F)cc1` (stereo not drawn) [DBK-1154]: in the assay with SH-EP cells [1], the “Mean % G1 (± SEM)” value is given as 52.0 (± 2.2) %, the “Mean % G2 (± SEM)” value is on record as 14.6 (± 4.9) %, the “Mean % S (± SEM)” value is on record as 26.3 (± 2.0) % and the percentage of cells in the S phase amounted to 26.3 ± 2%. The percentage of cells in G1 in the assay with SH-EP cells [1] turned out to be 52 ± 2.2%. For the same molecule, 22.4 µM corresponded to half-maximal inhibition in the assay on SK-N-AS cells (IC50). The “expression of CIP2A” value with CIP2A is listed as “decreased”. In the assay with SH-EP cells [2], the “late apoptosis (Annexin V/PI)” value is on record as “increased cells in late apoptosis”. The MYCN protein expression entry with MYCN (setting [3]) was “increase in MYCN expression”. In addition, the MYCN protein expression entry in the assay on MYCN (setting [4]) is “decreased expression of MYCN”. For the same molecule, the “PP2A activation (percent PP2A activity)” value on PP2A is recorded as 138.0 ± 16.5%.
Consider `O=S(=O)(N[C@H]1COC[C@@H](n2c3ccc(Cl)cc3c3cc(Cl)ccc32)[C@@H]1O)c1ccc(OC(F)(F)F)cc1` [ATUX-792], for which, in the assay on SH-EP cells [1] (SH-EP cells), the “percent of cells in subG1” value is “significant increase in the percent of cells in subG1”. Moreover, in the assay with SH-EP cells [1], the “Mean % G1 (± SEM)” value is given as 58.4 (± 2.3) %, the “Mean % G2 (± SEM)” value is listed as 12.1 (± 2.6) %, the “Mean % S (± SEM)” value is 21.0 (± 1.4) % and the percentage of cells in the S phase came to 21 ± 1.4%. The same molecule came in with a percentage of cells in G1 with SH-EP cells [1] of 58.4 ± 2.3%. This molecule also yielded a half-maximal inhibitory concentration (IC50) in the assay with SK-N-AS cells of 23.9 µM. Besides, the “expression of CIP2A” value with CIP2A was “decreased”. In addition, in the assay with SH-EP cells [2], the “early apoptosis (Annexin V/PI)” value is given as “significant increase in early apoptosis” and the “late apoptosis (Annexin V/PI)” value is on record as “increased cells in late apoptosis”. Also, in the assay on MYCN (setting [3]), the MYCN protein expression entry is “increase in MYCN expression”. Moreover, the MYCN protein expression result in the assay on MYCN (setting [4]) was “decreased expression of MYCN”. For the same molecule, the “PP2A activation (percent PP2A activity)” value on PP2A is recorded as 117.3 ± 7.2%.
